The OPERA property sets (Mansouri et al. 2018)

| logP | SMILES |
| --- | --- |
| 3.77 | CNC12CCCCCC1Cc1ccccc12 (stereo unspecified) |
| 2.48 | CNCC1CCC2(NC)c3ccccc3CC2C1 (stereo unspecified) |
| 3.79 | C=C1c2ccccc2C2(NC)CCCCC12 (stereo unspecified) |
| 1.84 | CNC12CCC(CN)CC1Cc1ccccc12 (stereo unspecified) |
| 3.51 | CNC12CCCCC1Cc1cc(OC)ccc12 (stereo unspecified) |
| 3.54 | CNC12CCCCC1Cc1ccc(OC)cc12 (stereo unspecified) |

The next lines start with the compound.

| SMILES | logP |
| --- | --- |
| CNC12CCCCC1c1ccccc1C2 (stereo unspecified) | 3.43 |
| NC12CCCC1Cc1ccccc12 (stereo unspecified) | 2.58 |
| CNC12CCCCC1Cc1ccccc12 (stereo unspecified) | 3.38 |
| CNC12c3ccccc3CC1CCCC2C (stereo unspecified) | 3.44 |
| CCNC12c3ccccc3CC1CCCC2C (stereo unspecified) | 3.8 |
